Experimental data published in ChEMBL document CHEMBL1146790, “Structural variations in keto-glutamines for improved inhibition against hepatitis A virus 3C proteinase” (Bioorg Med Chem Lett, 2004).

system: 3C proteinase (Hepatitis A virus); assay: Reversible inhibitory activity against Protease at a concentration 100 uM; conditions: Hepatovirus A

**Q.** With `CC(=O)N[C@@H](CC(C)C)C(=O)N[C@@H](C)C(=O)N[C@@H](C)C(=O)N[C@@H](CCC(=O)N(C)C)C(=O)Cn1nnc(C(=O)O)c1C(=O)O` as the compound, how does the inhibition read?
**A.** The inhibition was 1%.

**Q.** `COC(=O)c1nnn(CC(=O)[C@H](C[C@@H]2CCNC2=O)NC(=O)[C@H](C)NC(=O)[C@H](C)NC(=O)[C@H](CC(C)C)NC(C)=O)c1C(=O)OC` was tested. Which inhibition did it give?
**A.** Its inhibition is 14%.

**Q.** With `COC(=O)c1nnn(CC(=O)[C@H](CCC(=O)N(C)C)NC(=O)[C@H](C)NC(=O)[C@H](C)NC(=O)[C@H](CC(C)C)NC(C)=O)c1C(=O)OC` as the compound, how does the inhibition read?
**A.** Its inhibition is 9%.
